Experimental data as given in patent publication EP3504969B1, “COMPOSITION FOR CONTROLLING FUNGAL INFECTION CAUSED BYNOSEMA CERANAE” (Universidad De Chile, priority 2015, dated 2017).

How the values were obtained:
Nosema ceranae [1] = assay: Confirmation efficacy test (Marchámalo): spore reduction in infected bees, days 5, 6 and 7; assay type: in vivo, Apis mellifera; conditions: day 7; CD14 daily dose 4 µg/bee; fumagillin 240 µg/bee; p = 0.0001
Protocol: The AEselec in the previous paragraph (selected for its higher efficacy and higher yield) was assayed to confirm its activity against nosemosis using standardized tests in the Pathology Laboratory of the Centro Agrario de Marchámalo, Spain. Consequently, 3 groups of treatments were used, comprising 3 cages each and 35 bees/cage, born in laboratory, which, after a waiting period of 7 days, were infected with a load of 5 × 10^4 spores per bee. Later, a waiting period of 5 days passed to begin the application of the treatment in the ad libitum feeding. (Higes, 2007; Higes et al., 2010): • 1. Group without infection, negative control (Nl) • 2. Group infected with Nosema spp. spores, untreated positive control to which only 50% sucrose syrup with a 2% L-promoter (IST) shall be given, • 3. Group infected with Nosema spp. spores treated with peumo AE (ICT).
Spores. […] Both environmental variables were monitored through the installation of an environmental thermohygrometer. […]
Figure 6. Effectiveness of CD14 indicated as a percentage of spore reduction on days 5, 6 and 7 days of treatment at a daily dose of CD14, of 4µg/bee and 20 µg/bee of the majority of the evaluated monoterpenes. […]

Nosema ceranae [2] = conditions: laboratory studies; result in words; cited from earlier work

Compound | inhibited the growth of N. ceranae spores (Nosema ceranae [1]) | reducing the spore load of Nosema ceranae (Nosema ceranae [2])
CO[C@@H]1[C@H](OC(=O)/C=C/C=C/C=C/C=C/C(=O)O)CC[C@]2(CO2)[C@H]1[C@@]1(C)O[C@@H]1CC=C(C)C [fumagillin] | about 80% | 
Oc1ccc(C=Cc2cc(O)cc(O)c2)cc1 [resveratrol] |  | significant effects
Cc1ccc(C(C)C)c(O)c1 [thymol] |  | significant effects
